The values below come from US20110257131A1, “PHENYLALKYL-IMIDAZOLE-BISPHOSPHONATE COMPOUNDS” (NOVARTIS AG, priority 2008, published 2011).

In this experiment the target is T1, Human farnesyl pyrophosphate synthase (FPPS, Swissprot ID: P14324) (Homo sapiens, UniProt P14324).
T1 construct: made in house
T1 sequence (P14324 67-419 limits assumed): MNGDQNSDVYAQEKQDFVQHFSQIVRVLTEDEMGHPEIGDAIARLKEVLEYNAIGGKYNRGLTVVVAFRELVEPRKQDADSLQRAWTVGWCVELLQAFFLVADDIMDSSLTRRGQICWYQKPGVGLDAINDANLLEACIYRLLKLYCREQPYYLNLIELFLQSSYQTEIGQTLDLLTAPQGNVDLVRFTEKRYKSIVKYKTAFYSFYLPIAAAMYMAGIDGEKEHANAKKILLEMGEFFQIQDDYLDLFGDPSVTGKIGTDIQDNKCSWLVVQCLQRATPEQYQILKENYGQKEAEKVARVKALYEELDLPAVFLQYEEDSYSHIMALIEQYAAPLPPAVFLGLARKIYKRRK
The experiment in a line: FPPS assay (label-free LC/MS/MS quantification of farnesyl pyrophosphate). Conditions: cell-free in vitro FPPS assay; 5 min pre-incubation with enzyme, GPP/IPP 5 μM each, 30 min reaction. Format: biochemical. As to the method: For example, in a cell-free in vitro assay the superiority of compounds of the formula I over compounds already known can be shown. Briefly, the reaction proceeds in the presence of enzyme and an inhibitor of the formula I, and the reaction product (farneysyl pyrophosphate) is quantified by LC/MS/MS.
In detail, the inhibitor and enzyme are pre-incubated before adding the substrates
The assay is a label-free assay for farnesyl pyrophosphate synthase (FPPS) based on LC/MS/MS. This method quantifies in-vitro untagged farnesyl pyrophosphate (FPP) and is suitable for high throughput screening (HTS) to find inhibitors of FPPS and for the determinations of IC50 values of candidate compounds. The analysis time is 2.0 minutes with a total cycle time of 2.5 minutes. The analysis can be formatted for 384-well plates resulting in an analysis time of 16 hours per plate.
Pentanol, methanol, and isopropyl alcohol are HPLC grade and obtained from Fisher Scientific, DMIPA is from Sigma-Aldrich. Water is from an in-house Milli-Q system. The assay buffer (20 mM HEPES, 5 mM MgCl2 and 1 mM CaCl2) is prepared by dilution from […] stock solutions obtained from Sigma-Aldrich. Standards of geranyl pyrophosphate (GPP), […], and farnesyl S-thiolopyrophosphate (FSPP) are from Echelon Biosciences (Salt Lake City, Utah). Human farnesyl pyrophosphate synthase (FPPS, Swissprot ID: P14324) (13.8 mg/mL) is prepared as described by Rondeau at al (ChemMedChem 2006, 1, 267-273.
LC/MS/MS analyses are performed on a Micromass Quattro Micro tandem quadrupole mass analyser (Waters Corp, Milford, Mass., USA) interfaced to an Agilent 1100 binary LC pump Agilent Technologies, Inc., Santa Clara, Calif., USA). Injection is performed with a CTC Analytics autosampler (Leap Technologies Inc., Carrboro, N.C., USA) using an injection loop size of 2.5 μL. Chromatography is performed on a Waters 2.1×20 mm Xterra MS C18 5 μm guard column (P/N186000652) (Waters Corp., Milford, Mass., USA) contained in a guard column holder (P/N 186000262) using 0.1% DMIPA/methanol as solvent A and 0.1% DMIPA/water as solvent B (DMIPA is dimethylisopropylamine). The gradient is 5% A from 0.00 to 0.30 min, 50% A at 0.31 min., 80% A at 1.00 min., and 5% A from 1.01 to 2.00 min. The flow rate is 0.3 mL/min, and the flow is diverted to waste from 0.00 to 0.50 min and again from 1.20 to 2.00 min.
The Multiple Reaction Monitoring (MRM) transitions monitored are 381->79—for FPP and 397->159—for FSPP at a collision energy of 22 eV and a collision cell pressure of 2.1×10-3 mbar of Ar. The dwell time per transition is 400 msec with a span of 0.4 Da. The inter-channel delay and interscan delay are both 0.02 sec. Other mass spectrometric operating parameters are: capillary, 2.0 kV; cone, 35 V; extractor, 2.0 V, source temp., 100 ° C.; desolvation gas temp., 250° C.; desolvation gas flow, 650 L/hr; cone gas flow, 25 L/hr; multiplier, 650 V.
The total cycle time per sample is 2.5 minutes. Since the analysis is formatted for 384-well plates, a plate is analyzed in 16 hours. The chromatograms are processed using Quanlynx software, which divides the area of individual FPP peaks by the area of the FSPP peaks (internal standard). The resulting values are reported as the relative response for the corresponding sample well.
Into each well of a 384-well plate, 5 μL of compound in 20% DMSO/water is placed. […]
What is called IC50 is the midpoint of a concentration-inhibition curve. Compound `O=P(O)(O)C(O)(Cn1cnc(Cc2ccccc2)c1)P(=O)(O)O` [Example 2, [2-(4-Benzyl-imidazol-1-yl)-1-hydroxy-1-phosphono-ethyl]-phosphonic acid] gave an IC50 of 1.4 nM.
As for `Cc1ccc(CCCc2cncn2CC(O)(P(=O)(O)O)P(=O)(O)O)cc1` [Example 5, {1-Hydroxy-1-phosphono-2-[5-(3-p-tolyl-propyl)-imidazol-1-yl]-ethyl}-phosphonic acid], the figure is 3.5 nM; as for `O=P(O)(O)C(O)(Cn1cnc(CCc2ccccc2)c1)P(=O)(O)O` [Example 3, [1-Hydroxy-2-(4-phenethyl-imidazol-1-yl)-1-phosphono-ethyl]-phosphonic acid], 1.9 nM.
As for `O=P(O)(O)C(O)(Cn1cncc1CCc1ccccc1)P(=O)(O)O` [Example 4, [1-Hydroxy-2-(5-phenethyl-imidazol-1-yl)-1-phosphono-ethyl]-phosphonic acid], the half-inhibitory concentration (IC50) was found to be 6.7 nM.
In turn, `O=P(O)(O)C(O)(Cn1cncc1CCCc1ccccc1)P(=O)(O)O` [Example 1, {1-Hydroxy-2-[5-(3-phenyl-propyl)-imidazol-1-yl]-1-phosphono-ethyl}-phosphonic acid] registered an IC50 of 1.9 nM.
